Data as given in ChEMBL document CHEMBL1201862, “PubChem BioAssay data set” (2004).
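A five-concentration, 48-hour dose response in 96-well plates underlies each endpoint, interpolated linearly between surrounding concentrations. GI50 = concentration required for 50% inhibition of growth.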 Calls of active or inactive are those of the source. No stated cut-off is given here; in the data, active = GI50 up to about 1.1 µM and inactive = higher. Non-standard residues stand in square brackets, D forms with d. Residues, ends and D or L forms follow the SMILES beside them. ξ: configuration not given here. Pen = CC(C)(S)[C@H](N)C(=O)O; ξL = CC(C)CC(N)C(=O)O

Experiments:
Experiment in all cases: DTP human tumour cell line panel, 48 h
A549 = test system: A549
CCRF-CEM = test system: CCRF-CEM
OVCAR-4 = test system: OVCAR-4
NCI-H460 = test system: NCI-H460
SK-MEL-28 = test system: SK-MEL-28
COLO 205 = test system: COLO 205
SW-620 = test system: SW-620
IGROV-1 = test system: IGROV-1
HOP-62 = test system: HOP-62
HOP-92 = test system: HOP-92
K562 = test system: K562
NCI-H226 = test system: NCI-H226
OVCAR-3 = test system: OVCAR-3
MOLT-4 = test system: MOLT-4
LOX IMVI = test system: LOX IMVI
HCT-15 = test system: HCT-15
HL-60 = test system: HL-60
SNB-19 = test system: SNB-19
NCI-H522 = test system: NCI-H522
RXF 393 = test system: RXF 393

SMILES	GI50 (A549)	GI50 (CCRF-CEM)	GI50 (OVCAR-4)	GI50 (NCI-H460)	GI50 (SK-MEL-28)	GI50 (COLO 205)	GI50 (SW-620)	GI50 (IGROV-1)	GI50 (HOP-62)	GI50 (HOP-92)	GI50 (K562)	GI50 (NCI-H226)	GI50 (OVCAR-3)	GI50 (MOLT-4)	GI50 (LOX IMVI)	GI50 (HCT-15) [µM]	GI50 (HL-60)	GI50 (SNB-19)	GI50 (NCI-H522)	GI50 (RXF 393)
C=C1C[C@@H](O)C[C@@]2(C)C[C@@H]3OC(=O)C(=C)[C@@H]3C[C@H]12	23 µM (inactive)	3.56 µM (inactive)	15.2 µM (inactive)	16.5 µM (inactive)	4.82 µM (inactive)	1.61 µM (inactive)	5.42 µM (inactive)	11.2 µM (inactive)	15.4 µM (inactive)	13.1 µM (inactive)	4.19 µM (inactive)	14 µM (inactive)	11.2 µM (inactive)	3.2 µM (inactive)	4.46 µM (inactive)	4.42	1.89 µM (inactive)	5.21 µM (inactive)	7.78 µM (inactive)	6.34 µM (inactive)
COC(=O)C1C(O)C(C)C(O)C(C)(O)/C=C\C=C(C)C(=O)Nc2c(C)c(OC(C)=O)c3c(c2O)C(=O)C(C)=C2OCOC(=C23)C(C)=CC(C)(O)C(O)C(C)C1OC(C)=O (stereo not given)	> 100 µM (inactive)	34.7 µM (inactive)	75 µM (inactive)	26.1 µM (inactive)	40.1 µM (inactive)	18.6 µM (inactive)	38.3 µM (inactive)	30.1 µM (inactive)	> 86.3 µM (inactive)	2.52 µM (inactive)	37.4 µM (inactive)	63.5 µM (inactive)	27.7 µM (inactive)	38 µM (inactive)	20.4 µM (inactive)	35.5	28.4 µM (inactive)	89.9 µM (inactive)	32.4 µM (inactive)	22.4 µM (inactive)
O=C1C=C/C(=C/[C@H]2SSC=C[C@]23C=CC(=O)C3)C1	22.8 µM (inactive)	2.54 µM (inactive)	30 µM (inactive)	29.3 µM (inactive)	18.9 µM (inactive)	13 µM (inactive)	11.9 µM (inactive)	17.8 µM (inactive)	27.9 µM (inactive)	20.6 µM (inactive)	5.3 µM (inactive)	6.41 µM (inactive)	26.7 µM (inactive)	1.36 µM (inactive)	10.3 µM (inactive)	14.9	2.38 µM (inactive)	36.1 µM (inactive)	11 µM (inactive)	13.3 µM (inactive)
CCOC(=O)CNC(=O)NC12CC3CC(CC(C3)C1)C2	229 µM (inactive)	182 µM (inactive)	294 µM (inactive)	136 µM (inactive)	179 µM (inactive)	137 µM (inactive)	247 µM (inactive)	240 µM (inactive)	185 µM (inactive)	22.1 µM (inactive)	226 µM (inactive)	203 µM (inactive)	153 µM (inactive)	180 µM (inactive)	237 µM (inactive)	229	177 µM (inactive)	270 µM (inactive)	142 µM (inactive)	80.9 µM (inactive)
C=CCc1cccc2cc(C(=O)Nc3ccc(C)cc3)c(=N)oc12	> 100 µM (inactive)	> 100 µM (inactive)	> 100 µM (inactive)	> 100 µM (inactive)	> 100 µM (inactive)	> 100 µM (inactive)	> 100 µM (inactive)	> 100 µM (inactive)	> 100 µM (inactive)	> 100 µM (inactive)	> 100 µM (inactive)	33.9 µM (inactive)	> 100 µM (inactive)	> 100 µM (inactive)	> 100 µM (inactive)	> 100	> 100 µM (inactive)	> 100 µM (inactive)	> 100 µM (inactive)	> 100 µM (inactive)
CCCCCCSc1nc(N)nc2nc[nH]c12	30 µM (inactive)	46.6 µM (inactive)	52.7 µM (inactive)	39.3 µM (inactive)	59.3 µM (inactive)	38.9 µM (inactive)	56.2 µM (inactive)	30.5 µM (inactive)	34.5 µM (inactive)	28.8 µM (inactive)	32 µM (inactive)	32.1 µM (inactive)	40.2 µM (inactive)	> 55.2 µM (inactive)	26.1 µM (inactive)	35.4	19.6 µM (inactive)	39.4 µM (inactive)	15.7 µM (inactive)	32.7 µM (inactive)
c1ccc2c(c1)SCCc1cn[nH]c1-2	> 100 µM (inactive)	> 100 µM (inactive)	> 100 µM (inactive)	> 100 µM (inactive)	> 100 µM (inactive)	> 100 µM (inactive)	> 100 µM (inactive)	> 100 µM (inactive)	> 100 µM (inactive)	> 73.5 µM (inactive)	> 100 µM (inactive)	24.7 µM (inactive)	> 100 µM (inactive)	> 100 µM (inactive)	> 100 µM (inactive)	> 100	> 100 µM (inactive)	> 100 µM (inactive)	> 100 µM (inactive)	> 100 µM (inactive)
CC(=O)OCC1OC(Nc2ncc(-c3ccc(C)cc3)s2)C(OC(C)=O)C(OC(C)=O)C1OC(C)=O (stereo not given)	44.5 µM (inactive)	29.1 µM (inactive)	27 µM (inactive)	31.5 µM (inactive)	39.1 µM (inactive)	40.5 µM (inactive)	74.5 µM (inactive)	66.5 µM (inactive)	52 µM (inactive)	42.6 µM (inactive)	34.2 µM (inactive)	25.2 µM (inactive)	31.6 µM (inactive)	24.6 µM (inactive)	26.9 µM (inactive)	37.5	21 µM (inactive)	> 100 µM (inactive)	64.9 µM (inactive)	47.3 µM (inactive)
C=CC1(c2ccccc2Cl)N/C(=C/OCC)CO1 (stereo not given)	38.2 µM (inactive)	> 100 µM (inactive)	> 100 µM (inactive)	> 100 µM (inactive)	> 100 µM (inactive)	88.3 µM (inactive)	13.2 µM (inactive)	> 100 µM (inactive)	> 100 µM (inactive)	> 100 µM (inactive)	> 100 µM (inactive)	> 100 µM (inactive)	> 100 µM (inactive)	> 100 µM (inactive)	23.5 µM (inactive)	> 100	47.9 µM (inactive)	> 100 µM (inactive)	> 100 µM (inactive)	10.3 µM (inactive)
O=C(O)C(F)(F)C(F)(F)C(F)(F)C(F)(F)C(F)(F)C(F)(F)C(F)(F)C(F)(F)F	47.8 µM (inactive)	28.2 µM (inactive)	73.3 µM (inactive)	81.5 µM (inactive)	> 100 µM (inactive)	48.5 µM (inactive)	52.5 µM (inactive)	> 100 µM (inactive)	52.6 µM (inactive)	24.9 µM (inactive)	27.1 µM (inactive)	34.2 µM (inactive)	43.8 µM (inactive)	> 100 µM (inactive)	42.3 µM (inactive)	27.4	25.2 µM (inactive)	39.6 µM (inactive)	62.5 µM (inactive)	> 100 µM (inactive)
C[S+](C)CC1OC(n2cnc3c(N)ncnc32)C(O)C1O (stereo not given)	> 225 µM (inactive)	> 225 µM (inactive)	> 225 µM (inactive)	> 225 µM (inactive)	> 225 µM (inactive)	> 225 µM (inactive)	> 225 µM (inactive)	> 225 µM (inactive)	> 225 µM (inactive)	> 225 µM (inactive)	> 225 µM (inactive)	> 225 µM (inactive)	> 225 µM (inactive)	> 225 µM (inactive)	> 225 µM (inactive)	> 225	> 225 µM (inactive)	> 225 µM (inactive)	> 225 µM (inactive)	> 225 µM (inactive)
CSCC[C@H](NC(=O)C(CC(C)C)NC(=O)[C@H](Cc1c[nH]cn1)NC(=O)CNC(=O)[C@@H](NC(=O)[C@@H](C)NC(=O)[C@H](Cc1c[nH]c2ccccc12)NC(=O)[C@H](CCC(N)=O)NC(=O)[C@@H](N)CC(N)=O)C(C)(C)SC)C(N)=O (stereo not given in full) (H-NQW[dA][Pen](Me)GH[ξL]M-NH2)	> 100 µM (inactive)	> 100 µM (inactive)	> 100 µM (inactive)	> 100 µM (inactive)	> 100 µM (inactive)	> 100 µM (inactive)	> 100 µM (inactive)	> 100 µM (inactive)	> 100 µM (inactive)	> 100 µM (inactive)	> 100 µM (inactive)	> 100 µM (inactive)	> 100 µM (inactive)	> 100 µM (inactive)	> 100 µM (inactive)	> 100	> 100 µM (inactive)	> 100 µM (inactive)	> 100 µM (inactive)	> 100 µM (inactive)
